Patent publication US20230233695A1, “MITHRAMYCIN A NANOPARTICLES FOR CANCER TREATMENT” (priority 2021, published 2023)
“And” between values parts separate entries of the source, which are not always exact repeats. Equal entries are not always repeated.

What was measured:
[1] = system: EWS:Fli1+ cells; assay: XTT cell viability assay, average over EWS:Fli1+ cell lines; type: cell-based; details: read-out: average IC50 against EWS:Fli1+ cells
Description: (§1) Cell viability assays. For viability assays, four EWS:Fli1 fusion tumor cell lines (RD-ES, SK-ES-1, A673, and TC-71), one human embryonic kidney cell line (293.T), one ES tumor cell line with ERG fusion (CHLA-25), one fetal kidney cell line (HEK293.T), one hepatoblastoma cell line (HepG2), one chronic myeloid leukemia (MEG-01), and one acute monocytic leukemia (THP-1) cell line were plated at 5000 cells/well in 100 μL growth media in 96-well plates. After overnight incubation, 50 μL of growth media containing mithramycin A (MithA) (Cayman Chemical, Ann Arbor, Mi. Item Number 11434) or boronic acid-conjugated nano-MithA (MANP) (0.12 nM to 500 nM, final) or dimethyl sulfoxide (DMSO, 0.01% v/v) vehicle was added to the wells, and cell viability assays were performed 72 hours later. The cells were incubated with the activated-XTT solution (mixture of 2% final concentration of activation reagent with the XTT reagent) from ATCC (Catalog Number 30-1011K, XTT Cell Proliferation Assay Kit) for 3 hours prior to recording absorbance. The cell viability was determined by measuring the absorbance wavelength at 475 nm and reference wavelength at 650 nm on an Infinite M200 plate reader (Tecan Group, Ltd. Mannedorf, Switzerland). […]

[2] = cited from earlier work
[3] = system: RD-ES; assay: XTT cell viability assay, RD-ES; type: cell-based; details: 72 h, read-out: Viability IC50
Description: as §1

[4] = system: THP-1; assay: XTT cell viability assay, THP-1; type: cell-based; details: Homo sapiens, THP-1, 72 h, read-out: Viability IC50
Description: as §1

[5] = system: NR0B1; assay: Western blotting, NR0B1 protein expression; type: cell-based; details: 10 nM, 24 hours; compared with saline control, p<0.0471
Description: Western Blotting. Expression Western blotting was performed to assess the expression of NR0B1 (EWS:Fli1 target gene) and Rad 51 (DNA homologous recombination repair HRR) at protein level as provisory described in Lin et al 2021. Briefly, cells were grown to ˜70% confluence and exposed to 10 nM of MithA/MANP (final concentration) or DMSO, (0.01% v/v) vehicle and blank polymer for 24 hours. Lysates were collected in cold RIPA lysis buffer supplemented with 1×HALT protease/phosphatase inhibitor cocktail (Thermo Scientific) and clarified by centrifugation. Protein concentration of the supernatant was determined by BCA assay (Thermo Scientific), and then diluted in 4× loading buffer (Licor Inc., Lincoln, Nebr.) containing 1× NuPAGE reducing agent (Life Technologies). Prior to electrophoresis, samples were denatured by incubating at 70° C. for 10 minutes. Samples were then resolved (25 μg/lane) on 4-20% gradient SDS-PAGE gels and transferred to low-fluorescence PVDF membranes (Bio-Rad Inc., Hercules Calif.). Transfer efficiency and equivalence of total protein load was assessed using Revert 700 Total Protein Stain kits (Licor Inc). Membranes were then washed, blocked in Odyssey Blocking Buffer (PBS) (Licor Inc), and incubated with primary antibodies (Table S4.3 above) overnight at 4° C. diluted in blocking buffer.

[6] = system: Rad51; assay: RT-qPCR, Rad51 mRNA expression; type: cell-based; details: 10 nM, 3 cell lines tested
Description: Assessment of mRNA expression by RT-qPCR. Total RNA was extracted from EWS:Fli1^+ cell cultures (TC-71, A673, and RD-ES) exposed to 10 nM of MithA/MANP (final concentration) or DMSO, (0.01% v/v) vehicle and blank polymer for 24 hours by the RNeasy technique with RNeasy columns with on-column DNAse I digestion (Qiagen, Valencia, Calif.) according to the manufacturer's instructions. The concentration and purity of the extracts were determined by UV absorbance at 230/260/280/320 nm wavelengths using a Tecan Infinite M200 spectrophotometer. Template cDNA was synthesized from […] of RNA extract by reverse-transcription using the Quantitect RT kit (Qiagen). Oligonucleotide primer sequences and more detailed information described in Supplemental Table S4). RT-PCR was performed using Quantitect SYBR-green qPCR reagents in a Mastercycler ep Realplex2 instrument (Eppendorf AG, Hamburg, Germany). […] Relative quantification of mRNA expression between MithA/MANP or vehicle/blank polymer treated cells were semi-quantitatively calculated by comparing the average threshold cycle (Ct) for the treated samples to the average Ct for untreated samples (Vehicle or blank polymer. Amplification efficiency was determined for each primer set, and the Pfaffl equation to determine relative fold change in gene expression. Beta-actin was used as the housekeeping gene for normalization.

[7] = system: Female C57BL/6J mice; assay: In vivo toxicity: hematology; set-up: lymphocytes (% WBC) / granulocytes (% WBC): concentration or dose not given beside the values
Description: In vivo toxicity of MithA and MANP. Cohorts of n=6-7 C57BL/6J females, 8-10 wko were randomized to receive either intravenous or intraperitoneal administration of saline control vehicle, blank polymer, MithA, or MANP as described in TABLES 2A and 2B. Body weight loss exceeding 20%, death, morbidity, changes in behavior, and any other sign of local or systemic toxicity were recorded.
For hematology, blood was collected 24 h after the last dose by venipuncture of the tail or mandibular veins. Blood (>100 uL) was transferred to Sarstedt EDTA tubes and held on ice until differential complete blood count was performed using Abaxis VetScan HM2 hematology analyzer (Union City, Calif.). Samples were analyzed within 8 hours of collection. Giemsa-stained blood smears were also obtained for manual differentiation of granulocytes, as the instrument is not able to discriminate neutrophils, eosinophils, or basophils due to inefficient lysis of mouse granulocytes by this system.

[8] = system: TC-71; assay: XTT cell viability assay, TC-71; type: cell-based; details: TC-71, 72 h, read-out: Viability IC50
Description: as §1

[9] = 5x2 mg/kg i.v., in comparison to saline vehicle

SMILES: CO[C@H](C(=O)[C@@H](O)[C@@H](C)O)[C@@H]1Cc2cc3cc(O[C@H]4C[C@@H](O[C@H]5C[C@@H](O)[C@H](O)[C@@H](C)O5)[C@H](O)[C@@H](C)O4)c(C)c(O)c3c(O)c2C(=O)[C@H]1O[C@H]1C[C@@H](O[C@H]2C[C@@H](O[C@H]3C[C@](C)(O)[C@H](O)[C@@H](C)O3)[C@@H](O)[C@@H](C)O2)[C@H](O)[C@@H](C)O1 [MithA, (2S,3S)-2-[(2S,4R,5R,6R)-4-[(2S,4R,5S,6R)-4-[(2S,4S,5R,6R)-4,5-dihydroxy-4,6-dimethyloxan-2-yl]oxy-5-hydroxy-6-methyloxan-2-yl]oxy-5-hydroxy-6-methyloxan-2-yl]oxy-3-[(1 S,3S,4R)-3,4-dihydroxy-1-methoxy-2-oxopentyl]-6-[(2S,4R,5R,6R)-4-[(2S,4R,5S,6R)-4,5-dihydroxy-6-methyloxan-2-yl]oxy-5-hydroxy-6-methyloxan-2-yl]oxy-8,9-dihydroxy-7-methyl-3,4-dihydro-2H-anthracen-1-one]
- IC50 [1]: 10 nM
- patients with reversible grade 4 ALT/AST elevation ([2]; dose escalation, single-agent therapy): 2/8 and 2 out of 8
- serum level reached ([2]; level hypothesized to inhibit EWS:Fli1 activity, not reached before adverse effects): < 50 nM
- IC50 [3]: 6.2 nM
- IC50 [4]: 234 nM
- NR0B1 protein expression [5]: significantly suppressed
- Rad51 mRNA expression [6]: unable to detect significant inhibition
- thrombocytopenia / platelet dysfunction ([7]; 5x2 mg/kg (eq.) i.v.): displayed thrombocytopenia
- decrease of plateletcrit (%) [7, 9]: 3.4 fold
- decrease of total platelet count [7, 9]: 3.6 fold
- red blood cell (RBC) parameters ([7]; 5x4 mg/kg i.p.): no significant changes
- total white blood cell (WBC) count ([7]; 5x4 mg/kg i.p., relative to controls): no significant difference
- granulocytes (% Gran) ([7]; 5x4 mg/kg i.p., vs saline (P=0.001)): increased
- lymphocytes (% LYM) ([7]; 5x4 mg/kg i.p., vs saline (p<0.0001)): decreased
- monocytes (% MON) ([7]; 5x4 mg/kg i.p., vs saline (p=0.0187)): increased
- lymphocytes (% WBC) ([7]; 5xmg/kg i.v., compared to saline vehicle): reduced
- granulocytes (% WBC) ([7]; 5xmg/kg i.v., compared to saline vehicle (p<0.0001)): increased
- RBC parameters ([7]; five i.v. injections on alternating days, between treatment groups): No changes
- plateletcrit ([7]; single i.p. 4 mg/kg, vs saline): significant reductions
- mean corpuscular hemoglobin ([7]; single i.p. 4 mg/kg, vs saline (p=0.002)): significant reductions
- total platelet count ([7]; single i.p. 4 mg/kg, vs saline (p=0.0251)): significant reductions
- IC50 [8]: 9.3 nM
